# Laboratory results taken from patent publication US20230257385A1, “SALT AND SOLID FORMS OF TABERNANTHALOG” (priority 2021, published 2023).
# Test: Suspension equilibration of sorbate salt at 20 and 40° C. (Example 10, Experiments 3, 4, 9)
# Format: physicochemical
# Details: for Observations (t = 1 d @ 40° C.) / Observations (t = 10 d @ 40° C.): sorbate salt Form A in 5 vol solvent; for Observations (t = 1 d @ 40° C.) / Observations (t = 10 d @ 40° C.) / Observations (t = 0 @ 40° C.) / XRPD (IPC, 6 d, wet) / XRPD (post oven dried): one solvent per sample; for Observations (t = 0 @ 40° C.): sorbate salt Form A, ca. 50 mg in 5 vol solvent; for XRPD (IPC, 6 d, wet): moist pellet after 6 d; for XRPD (post oven dried): pellet after oven drying
# Experimental: The purpose of this panel is to determine if Form A evolves into a supra-ordinate form. The companion panel at 40° C. set-point is in place to detect enantiotropic behaviour via different relative proportions in different solvents. XRPD data of the moist pellets obtained from the suspension equilibration study at 20° C.
# The relevant solvent (5 vol) was added to the appropriate vial and the suspensions were stirred and warmed to the predetermined temperature with stirring. […]
# [1] = suspension equilibration at 40° C.
smiles,measurement,setting,value
CC=CC=CC(=O)O.COc1ccc2c3c([nH]c2c1)CCN(C)CC3 [Experiment 4-Sample G],Observations (t = 1 d @ 40° C.),,Suspension
same,Observations (t = 10 d @ 40° C.),,Suspension
same,Observations (t = 0 @ 40° C.),,Suspension
same,"XRPD (IPC, 6 d, wet)",[1],Form A
same,XRPD (post oven dried),[1],Form A
C/C=C/C=C/C(=O)O.COc1ccc2c3c([nH]c2c1)CCN(C)CC3 [Experiment 4-Sample H],Observations (t = 1 d @ 40° C.),,Suspension
same,Observations (t = 10 d @ 40° C.),,Suspension
same,Observations (t = 0 @ 40° C.),,Suspension
same,"XRPD (IPC, 6 d, wet)",[1],Pattern #3
same,XRPD (post oven dried),[1],Form A
CC=CC=CC(=O)O.COc1ccc2c3c([nH]c2c1)CCN(C)CC3 [Experiment 4-Sample I],Observations (t = 1 d @ 40° C.),,Suspension
same,Observations (t = 10 d @ 40° C.),,Suspension
same,Observations (t = 0 @ 40° C.),,Suspension
same,"XRPD (IPC, 6 d, wet)",[1],Form A
same,XRPD (post oven dried),[1],Form A
CC=CC=CC(=O)O.COc1ccc2c3c([nH]c2c1)CCN(C)CC3 [Experiment 4-Sample J],Observations (t = 1 d @ 40° C.),,Suspension
same,Observations (t = 10 d @ 40° C.),,Suspension
same,Observations (t = 0 @ 40° C.),,Suspension
same,"XRPD (IPC, 6 d, wet)",[1],Form A
same,XRPD (post oven dried),[1],Form A
CC=CC=CC(=O)O.COc1ccc2c3c([nH]c2c1)CCN(C)CC3 [Experiment 4-Sample K],Observations (t = 1 d @ 40° C.),,Suspension
same,Observations (t = 10 d @ 40° C.),,Suspension
same,Observations (t = 0 @ 40° C.),,Suspension
same,"XRPD (IPC, 6 d, wet)",[1],Form A
same,XRPD (post oven dried),[1],Form A
CC=CC=CC(=O)O.COc1ccc2c3c([nH]c2c1)CCN(C)CC3 [Experiment 4-Sample L],Observations (t = 1 d @ 40° C.),,Suspension
same,Observations (t = 10 d @ 40° C.),,Suspension
same,Observations (t = 0 @ 40° C.),,Suspension
same,"XRPD (IPC, 6 d, wet)",[1],Form A
same,XRPD (post oven dried),[1],Form A
C/C=C/C=C/C(=O)O.COc1ccc2c3c([nH]c2c1)CCN(C)CC3 [Experiment 4-Sample M],Observations (t = 1 d @ 40° C.),,Suspension
same,Observations (t = 10 d @ 40° C.),,Suspension
same,Observations (t = 0 @ 40° C.),,Suspension
same,"XRPD (IPC, 6 d, wet)",[1],Form A
same,XRPD (post oven dried),[1],Form A
CC=CC=CC(=O)O.COc1ccc2c3c([nH]c2c1)CCN(C)CC3 [Experiment 4-Sample N],Observations (t = 1 d @ 40° C.),,Suspension
same,Observations (t = 10 d @ 40° C.),,Suspension
same,Observations (t = 0 @ 40° C.),,Suspension
same,"XRPD (IPC, 6 d, wet)",[1],Form A
same,XRPD (post oven dried),[1],Form A
C/C=C/C=C/C(=O)O.COc1ccc2c3c([nH]c2c1)CCN(C)CC3 [Experiment 4-Sample O],Observations (t = 1 d @ 40° C.),,Suspension
same,Observations (t = 10 d @ 40° C.),,Suspension
same,Observations (t = 0 @ 40° C.),,Suspension
C/C=C/C=C/C(=O)O.COc1ccc2c3c([nH]c2c1)CCN(C)CC3 [Experiment 4-Sample P],Observations (t = 1 d @ 40° C.),,Suspension
same,Observations (t = 10 d @ 40° C.),,Suspension
same,Observations (t = 0 @ 40° C.),,Suspension
same,"XRPD (IPC, 6 d, wet)",[1],Form A
same,XRPD (post oven dried),[1],Form A
C/C=C/C=C/C(=O)O.COc1ccc2c3c([nH]c2c1)CCN(C)CC3 [Experiment 4-Sample Q],Observations (t = 1 d @ 40° C.),,Suspension
same,Observations (t = 10 d @ 40° C.),,Suspension
same,Observations (t = 0 @ 40° C.),,Suspension
same,"XRPD (IPC, 6 d, wet)",[1],Form A
same,XRPD (post oven dried),[1],Form A
C/C=C/C=C/C(=O)O.COc1ccc2c3c([nH]c2c1)CCN(C)CC3 [Experiment 4-Sample R],Observations (t = 1 d @ 40° C.),,Suspension
same,Observations (t = 10 d @ 40° C.),,Suspension
same,Observations (t = 0 @ 40° C.),,Suspension
same,"XRPD (IPC, 6 d, wet)",[1],Pattern #4
same,XRPD (post oven dried),[1],Form A
CC=CC=CC(=O)O.COc1ccc2c3c([nH]c2c1)CCN(C)CC3 [Experiment 9-Sample C],XRPD (post Filter dried),"Experiment 9, suspension equilibration at 40° C., filter dried",Form A
same,"XRPD (IPC, 5 d, wet)","Experiment 9, suspension equilibration at 40° C., targets Pattern #3, #4, #5",Form A
